Literature values as cited in patent US7691423B2, “Method of treating inflammation disorders using extracts of passion fruit” (priority 2005, dated 2010).

Tests used:
[1] = tested on: spontaneously hypertensive rat (SHR) cells; details: SHR cells in vitro

SMILES | Large dose acetylcholine-induced vascular contraction (vascular contraction) | NOLA-dependent spontaneous aortic ring contraction [1] | iNOS mRNA and the production of nitric oxide (iNOS)
O=c1ccc2cc(O)c(O)cc2o1 [esculetin] | inhibited | – | –
O=c1c(O)c(-c2ccc(O)cc2)oc2cc(O)cc(O)c12 [kaempferol] | inhibited | inhibit | –
O=c1c(O)c(-c2ccc(O)c(O)c2)oc2cc(O)cc(O)c12 [quercetin] | inhibited | inhibit | inhibit
